Measurements from paper PMC11879040, “Advancing systemic toxicity risk assessment: Evaluation of a NAM-based toolbox approach” (Toxicological Sciences, 2024).
Structures can show the parent of a compound that is named as a salt. Where two headings read alike, the source gives them in different places.

Legend:
[1] = test system: HepG2 cells; experiment: High-throughput transcriptomics (HTTr, TempO-Seq), HepG2, 24 h; format: cell-based, human
Protocol: (§1) HepG2, HepaRG, and MCF7 cells were treated with each compound for 24 h across a dose range of 7 concentrations and lysed using TempO-Seq lysis buffer (BioSpyder Technologies, proprietary kit, see [Middleton et al. 2022] for method details). Sequencing was performed using TempO-Seq (BioClavis) version 2 of the human whole transcriptome panel and analyzed as described previously in Middleton et al.

[2] = test system: HepaRG cells; experiment: High-throughput transcriptomics (HTTr, TempO-Seq), HepaRG, 24 h; format: cell-based, human
Protocol: as §1

[3] = test system: MCF7 cells; experiment: High-throughput transcriptomics (HTTr, TempO-Seq), MCF7, 24 h; format: cell-based, human
Protocol: as §1

[4] = test system: 63 targets with known safety liabilities; experiment: In vitro pharmacological profiling (IPP) panel, screening at 10 or 100 µM and dose response, minimum IC50/AC50; format: biochemical; settings: lowest AC50 across IPP panel (systemic targets); cell_type -; read-out: ipp_lowest_ac50_systemic PoD
[5] = test system: Potassium Voltage-Gated Channel Kv non-selective, KCNQ1 (r); experiment: IPP KCNQ1 binding (antagonist radioligand); parameters: species or system rat; settings: IPP screening at 100 uM; control α-dendrotoxin
[6] = test system: Gamma-aminobutyric acid receptor subunit alpha-1 BZD site, GABRA1A (r); format: binding, rat; settings: IPP screening at 100 uM; control diazepam
[7] = test system: Sodium channel protein type 5 subunit alpha (site 2), SCN5A (r); format: binding, rat; settings: IPP screening at 100 uM; control veratridine
[8] = biological target: T1, Adenosine receptor A2a, ADORA2A (h) (Homo sapiens, UniProt P29274); experiment: IPP ADORA2A binding (agonist radioligand); settings: IPP screening at 100 uM; control NECA
T1 construct: purchased Eurofins Cerep (SafetyScreen44-based IPP panel)
T1 sequence (P29274 whole entry): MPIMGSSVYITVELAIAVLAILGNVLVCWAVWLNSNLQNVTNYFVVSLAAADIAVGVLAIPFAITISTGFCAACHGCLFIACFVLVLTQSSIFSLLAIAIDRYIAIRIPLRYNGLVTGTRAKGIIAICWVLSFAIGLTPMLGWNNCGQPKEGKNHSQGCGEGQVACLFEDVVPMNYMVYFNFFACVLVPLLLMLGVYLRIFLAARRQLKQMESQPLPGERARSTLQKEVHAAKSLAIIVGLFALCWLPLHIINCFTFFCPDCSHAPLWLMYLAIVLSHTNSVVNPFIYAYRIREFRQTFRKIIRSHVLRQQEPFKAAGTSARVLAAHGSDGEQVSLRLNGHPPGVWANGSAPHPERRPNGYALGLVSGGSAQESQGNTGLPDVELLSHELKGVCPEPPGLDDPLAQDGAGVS

[9] = biological target: T2, Estrogen receptor, ER1 (h) (Homo sapiens, UniProt P03372); experiment: IPP ER1 coactivator recruitment (agonist); format: biochemical; settings: 100 uM, estriol, * denotes assay interference (2-Amino-6-chloro-4-nitrophenol, HC Red 3)
T2 construct: purchased Eurofins Cerep (SafetyScreen44-based IPP panel)
T2 sequence (P03372 1-595): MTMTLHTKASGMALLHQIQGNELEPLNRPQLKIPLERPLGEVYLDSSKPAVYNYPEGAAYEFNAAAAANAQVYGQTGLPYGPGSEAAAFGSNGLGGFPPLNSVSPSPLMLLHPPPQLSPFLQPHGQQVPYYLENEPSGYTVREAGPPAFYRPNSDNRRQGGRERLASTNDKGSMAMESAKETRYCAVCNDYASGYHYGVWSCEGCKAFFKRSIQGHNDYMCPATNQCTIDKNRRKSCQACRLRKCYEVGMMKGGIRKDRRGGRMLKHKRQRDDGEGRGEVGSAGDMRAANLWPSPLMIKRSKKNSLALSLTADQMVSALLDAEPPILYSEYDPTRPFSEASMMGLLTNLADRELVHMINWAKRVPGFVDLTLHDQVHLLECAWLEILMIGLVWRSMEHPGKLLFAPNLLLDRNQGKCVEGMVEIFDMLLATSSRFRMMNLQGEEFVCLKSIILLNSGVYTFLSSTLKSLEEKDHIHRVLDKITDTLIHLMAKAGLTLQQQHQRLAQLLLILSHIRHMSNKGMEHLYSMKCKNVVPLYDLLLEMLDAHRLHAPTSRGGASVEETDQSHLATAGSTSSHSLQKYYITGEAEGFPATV

[10] = biological target: T2, Estrogen receptor, ER1 (h); experiment: IPP ER1 coactivator recruitment (antagonist); format: biochemical; settings: 100 uM, estriol, * denotes assay interference (2-Amino-6-chloro-4-nitrophenol, HC Red 3)
[11] = test system: Thyroid hormone receptor alpha, THRA (h); experiment: IPP THRA coactivator recruitment (agonist); format: biochemical, human; settings: agonist, T3
[12] = test system: Tubulin (r); experiment: IPP Tubulin binding; parameters: species or system rat; settings: ligand/control Colchicine
[13] = test system: Glutamate receptor ionotropic NMDA 1 non-selective, GRIN1 (r)
[14] = biological target: Potassium voltage-gated channel subfamily H member 2 hERG, KCNH2 (h) (Homo sapiens, UniProt Q12809); settings: human, 100 µM
Sequence of Potassium voltage-gated channel subfamily H member 2 hERG, KCNH2 (h) (Q12809 whole entry): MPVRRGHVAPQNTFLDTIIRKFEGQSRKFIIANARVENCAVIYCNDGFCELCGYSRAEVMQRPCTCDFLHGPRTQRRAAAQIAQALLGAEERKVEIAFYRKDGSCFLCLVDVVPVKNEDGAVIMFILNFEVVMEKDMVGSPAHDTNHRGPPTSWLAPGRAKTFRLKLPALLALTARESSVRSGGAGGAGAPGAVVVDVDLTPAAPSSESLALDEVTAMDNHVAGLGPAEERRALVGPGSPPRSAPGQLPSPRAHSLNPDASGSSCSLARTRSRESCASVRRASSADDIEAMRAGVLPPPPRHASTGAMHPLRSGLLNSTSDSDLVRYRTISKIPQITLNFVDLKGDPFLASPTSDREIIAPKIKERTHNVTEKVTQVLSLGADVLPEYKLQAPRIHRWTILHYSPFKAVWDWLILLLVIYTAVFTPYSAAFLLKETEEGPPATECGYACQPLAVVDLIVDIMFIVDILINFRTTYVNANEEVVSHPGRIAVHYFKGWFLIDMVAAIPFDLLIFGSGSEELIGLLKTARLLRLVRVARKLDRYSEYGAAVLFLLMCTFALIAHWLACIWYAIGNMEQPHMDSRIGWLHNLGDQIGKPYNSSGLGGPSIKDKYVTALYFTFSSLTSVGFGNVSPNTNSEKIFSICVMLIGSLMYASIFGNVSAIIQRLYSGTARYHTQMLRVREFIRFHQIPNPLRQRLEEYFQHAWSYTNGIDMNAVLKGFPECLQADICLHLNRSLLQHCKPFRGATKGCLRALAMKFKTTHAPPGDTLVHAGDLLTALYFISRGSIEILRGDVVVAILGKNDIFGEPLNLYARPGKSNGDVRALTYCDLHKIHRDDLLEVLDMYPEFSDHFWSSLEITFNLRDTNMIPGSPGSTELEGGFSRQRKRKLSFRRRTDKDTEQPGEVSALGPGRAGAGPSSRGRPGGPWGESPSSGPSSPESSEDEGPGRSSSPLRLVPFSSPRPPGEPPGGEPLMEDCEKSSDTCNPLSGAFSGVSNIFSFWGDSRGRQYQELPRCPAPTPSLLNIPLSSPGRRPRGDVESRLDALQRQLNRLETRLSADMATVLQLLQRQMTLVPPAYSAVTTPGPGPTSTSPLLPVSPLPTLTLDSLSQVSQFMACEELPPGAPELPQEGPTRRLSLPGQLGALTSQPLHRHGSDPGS

[15] = test system: rat; settings: cited from earlier work
[16] = test system: HepG2 cells; experiment: Cell stress panel (CSP), 24 h, 8 concentrations, BIFROST global PoD; format: cell-based; settings: HepG2; cell stress panel PoD
Protocol: Compounds were tested using the previously developed cell stress panel ([Hatherell et al. 2020]) and the expanded biomarker panel outlined in Middleton et al. HepG2 cells were treated with all compounds for 24 h across 8 concentrations prior to biomarker analysis. The same plate layout and number of replicates (3 biological and 2 technical) were used as previously for each assay within the panel.

[17] = Assignment of risk classifications to benchmark chemical-exposure scenarios; settings: Dermal; […]; Body lotion; Exp1; from table S1
[18] = human
[19] = HepG2, HTTr minimum pathway BMD(L)
[20] = HepaRG, HTTr minimum pathway BMD(L)
[21] = MCF-7, HTTr minimum pathway BMD(L)
[22] = 100 uM, * denotes assay interference (2-Amino-6-chloro-4-nitrophenol, HC Red 3)
[23] = IPP screening at 100 uM, control CGS 19755

O=C(O)COCCN1CCN(C(c2ccccc2)c2ccc(Cl)cc2)CC1 (centres unmarked) [Cetirizine_dihydrochloride]
pod_httr_bifrost PoD ([1]; HepG2, HTTr BIFROST PoD): 9.8579 µM
podl_path_minbmd PoD [1, 19]: 120 µM
pod_httr_bifrost PoD ([2]; HepaRG, HTTr BIFROST PoD): 0.6956 µM
podl_path_minbmd PoD [2, 20]: 13.467 µM
pod_httr_bifrost PoD ([3]; MCF-7, HTTr BIFROST PoD): 3.21 µM
podl_path_minbmd PoD [3, 21]: 78.4644 µM
AC50 [4]: 81 nM

O=CCCCC=O [Glutaraldehyde_Solution]
pod_httr_bifrost PoD ([1]; HepG2, HTTr BIFROST PoD): 19.467 µM
podl_path_minbmd PoD [1, 19]: 50 µM
pod_httr_bifrost PoD ([2]; HepaRG, HTTr BIFROST PoD): 136.152 µM
podl_path_minbmd PoD [2, 20]: 500 µM
pod_httr_bifrost PoD ([3]; MCF-7, HTTr BIFROST PoD): 0.2467 µM
podl_path_minbmd PoD [3, 21]: 50 µM

COc1ccc(CCN(C)CCCC(C#N)(c2ccc(OC)c(OC)c2)C(C)C)cc1OC (centres unmarked) [Verapamil_hydrochloride]
pod_httr_bifrost PoD ([1]; HepG2, HTTr BIFROST PoD): 1.132 µM
podl_path_minbmd PoD [1, 19]: 8.538 µM
pod_httr_bifrost PoD ([2]; HepaRG, HTTr BIFROST PoD): 1.688 µM
podl_path_minbmd PoD [2, 20]: 24.0605 µM
pod_httr_bifrost PoD ([3]; MCF-7, HTTr BIFROST PoD): 0.3576 µM
podl_path_minbmd PoD [3, 21]: 10.6709 µM
AC50 [4]: 17 nM

O=C(O)c1ccc2c(c1)C(=O)OC2=O [Trimellitic anhydride, 1,3-Dioxo-1,3-dihydro-2-benzofuran-5-carboxylic acid]
Specific binding [5]: -6.6%
Specific binding [6]: 12.5%
Specific binding [7]: 30.3%
Specific binding [8]: 6.5%
IPP screening %, Coactivator recruitment [9]: 1.0%
IPP screening %, Coactivator recruitment [10]: -1.0%
IPP screening %, Coactivator recruitment [11, 22]: 1.0%
IPP screening %, Specific binding ([12]; 100 uM): 2%
Specific binding [13, 23]: 9.9%
IPP screening %, Specific binding [14]: -16.7%
PoD (NOEL) ([15]; rat, repeat dose, ref ECHA dossier): 300 mg/kg bw/day
NOAEL, dietary intake ([15]; repeat dose, before adjustment, ref ECHA dossier): Adjusted from NOAEL of 10000ppm dietary intake - ECHA dossier. Other studies referenced are for trimellitic acid.

CN(C)[C@@H]1C(O)=C(C(N)=O)C(=O)[C@@]2(O)C(O)=C3C(=O)c4c(O)cccc4[C@@](C)(O)[C@H]3[C@H](O)[C@@H]12 [Oxytetracycline_hydrochloride]
pod_cell_stress PoD [16]: 2.447 µM
pod_httr_bifrost PoD ([1]; HepG2, HTTr BIFROST PoD): 1.6523 µM
podl_path_minbmd PoD [1, 19]: 24.772 µM
pod_httr_bifrost PoD ([2]; HepaRG, HTTr BIFROST PoD): 4.2 µM
podl_path_minbmd PoD [2, 20]: 50.4384 µM
pod_httr_bifrost PoD ([3]; MCF-7, HTTr BIFROST PoD): 0.6783 µM
podl_path_minbmd PoD [3, 21]: 10.8661 µM

Nc1ccc(NCCO)c([N+](=O)[O-])c1 [HC_Red_3]
pod_httr_bifrost PoD ([1]; HepG2, HTTr BIFROST PoD): 0.3766 µM
podl_path_minbmd PoD [1, 19]: 1.617 µM
pod_httr_bifrost PoD ([2]; HepaRG, HTTr BIFROST PoD): 0.1851 µM
podl_path_minbmd PoD [2, 20]: 0.9652 µM
pod_httr_bifrost PoD ([3]; MCF-7, HTTr BIFROST PoD): 0.8099 µM
podl_path_minbmd PoD [3, 21]: 25.6755 µM
AC50 [4]: 2170 nM

NNc1nncc2ccccc12 [Hydralazine_hydrochloride]
pod_httr_bifrost PoD ([1]; HepG2, HTTr BIFROST PoD): 1.708 µM
podl_path_minbmd PoD [1, 19]: 20.4222 µM
pod_httr_bifrost PoD ([2]; HepaRG, HTTr BIFROST PoD): 1.593 µM
podl_path_minbmd PoD [2, 20]: 111.897 µM
pod_httr_bifrost PoD ([3]; MCF-7, HTTr BIFROST PoD): 0.3784 µM
podl_path_minbmd PoD [3, 21]: 100.098 µM
AC50 [4]: 1200 nM

CC(C)(CO)C(O)C(=O)NCCCO (centres unmarked) [Panthenol, 2,4-Dihydroxy-N-(3-hydroxypropyl)-3,3-dimethylbutanamide]
Specific binding [5]: -4.3%
Specific binding [6]: -1.9%
Specific binding [7]: 27.9%
Specific binding [8]: 7.3%
IPP screening %, Coactivator recruitment [11, 22]: 2.0%
IPP screening %, Specific binding ([12]; 100 uM): -5%
pod_cell_stress PoD [16]: 18298.9 µM
pod_httr_bifrost PoD ([1]; HepG2, HTTr BIFROST PoD): 7221.82 µM
podl_path_minbmd PoD [1, 19]: 20000 µM
HepaRG HTTr: concentration of single responding probe ([2]; BIFROST probe-level PoD): < 100 µM
HepaRG HTTr: next lowest probe ([2]; BIFROST probe-level PoD): 5100 µM
pod_httr_bifrost PoD ([2]; HepaRG, HTTr BIFROST PoD): 65.9596 µM
podl_path_minbmd PoD [2, 20]: 4552.59 µM
pod_httr_bifrost PoD ([3]; MCF-7, HTTr BIFROST PoD): 767.225 µM
podl_path_minbmd PoD [3, 21]: 20000 µM
Specific binding [13, 23]: 0.2%
risk [17]: 0

NC1CCCCC1 [cyclohexylamine]
NOAEL ([15]; 90 day rat study, cyclohexylamine administered, ref [19-22]): 100 mg/kg bw/day
dose at which testicular toxicity was observed ([15]; testicular atrophy and giant cell formation, ref [19-22]): ≥ 200 mg/kg bw/day

CCCCOC(=O)c1ccc(O)cc1 [Butyl_4-hydroxybenzoate]
pod_httr_bifrost PoD ([1]; HepG2, HTTr BIFROST PoD): 10.9882 µM
podl_path_minbmd PoD [1, 19]: 46.8548 µM
pod_httr_bifrost PoD ([2]; HepaRG, HTTr BIFROST PoD): 66.4882 µM
podl_path_minbmd PoD [2, 20]: 120 µM
pod_httr_bifrost PoD ([3]; MCF-7, HTTr BIFROST PoD): 0.02978 µM
podl_path_minbmd PoD [3, 21]: 0.1304 µM
AC50 [4]: 6580 nM

O=S(=O)([O-])NC1CCCCC1.[Na+] [Sodium_Cyclamate]
pod_httr_bifrost PoD [1]: 12.9839 µM
podl_path_minbmd PoD [1]: 1200 µM
pod_httr_bifrost PoD [2]: 485.622 µM
podl_path_minbmd PoD [2]: 442.002 µM
pod_httr_bifrost PoD [3]: 202.953 µM
podl_path_minbmd PoD [3]: 1200 µM

COc1ccc(O)c(C(C)(C)C)c1 [Butylated_Hydroxyanisole]
pod_httr_bifrost PoD ([1]; HepG2, HTTr BIFROST PoD): 9.643 µM
podl_path_minbmd PoD [1, 19]: 21.4191 µM
pod_httr_bifrost PoD ([2]; HepaRG, HTTr BIFROST PoD): 6.323 µM
podl_path_minbmd PoD [2, 20]: 13.7136 µM
pod_httr_bifrost PoD ([3]; MCF-7, HTTr BIFROST PoD): 8.844 µM
podl_path_minbmd PoD [3, 21]: 25.2807 µM
AC50 [4]: 600 nM

O=C(O)c1ccc2c(c1)C(=O)OC2=O [Trimellitic_anhydride]
pod_cell_stress PoD [16]: 34.7606 µM
pod_httr_bifrost PoD ([1]; HepG2, HTTr BIFROST PoD): 404.103 µM
podl_path_minbmd PoD [1, 19]: 1078.54 µM
pod_httr_bifrost PoD ([2]; HepaRG, HTTr BIFROST PoD): 236.503 µM
podl_path_minbmd PoD [2, 20]: 100.049 µM
pod_httr_bifrost PoD ([3]; MCF-7, HTTr BIFROST PoD): 423.806 µM
podl_path_minbmd PoD [3, 21]: 854.401 µM

O=CCCCC=O [Glutaraldehyde Solution]
pod_cell_stress PoD [16]: 37.601 µM

O=C(O)COCCN1CCN(C(c2ccccc2)c2ccc(Cl)cc2)CC1 (centres unmarked) [Cetirizine dihydrochloride, (2-{4-[(4-Chlorophenyl)(phenyl)methyl]piperazin-1-yl}ethoxy)acetic acid--hydrogen chloride (1/2)]
IPP screening %, Coactivator recruitment ([11]; 10 uM): 2.0%
IPP screening %, Specific binding ([12]; 10 uM): 14.0%
pod_cell_stress PoD [16]: 67.3241 µM
Specific binding [13]: 1.4%
risk [18]: 1

CCN(CC)CCNC(=O)c1cc(Cl)c(N)cc1OC [Metclopramide]
pod_cell_stress PoD [16]: 73.2603 µM
pod_httr_bifrost PoD ([1]; HepG2, HTTr BIFROST PoD): 16.0473 µM
podl_path_minbmd PoD [1, 19]: 79.9772 µM
pod_httr_bifrost PoD ([2]; HepaRG, HTTr BIFROST PoD): 30.9764 µM
podl_path_minbmd PoD [2, 20]: 92.5373 µM
pod_httr_bifrost PoD ([3]; MCF-7, HTTr BIFROST PoD): 18.3439 µM
podl_path_minbmd PoD [3, 21]: 87.28 µM
AC50 [4]: 46 nM
